Tests used:
[1] = test system: phosphorylated SMAD2 (p-SMAD2); experiment: Western blot of phospho-SMAD2 in hair bulbs of HFOCs; type: cell-based, human; details: HFOCs treated with DHT or DHT+galunisertib for 72 h
Experimental: For western blot, hair bulbs are dissected from HFOCs treated with DMSO, DHT and Galunisertib for 72 h. Upon rinse in PBS, hair bulbs are lysed in Laemmli buffer (without bromophenol blue) with Halt Protease Inhibitor Cocktail and Halt Phosphatase Inhibitor Cocktail, and lysates are sonicated. Lysates from 10 hair bulbs are used for each condition tested. Total extracts are then loaded in SDS-polyacrylamide gels and transferred onto nitrocellulose membranes for western blot analysis. Membranes are blocked during 1 h with TBS+5% BSA. Primary and secondary antibodies are diluted in TBS+2% BSA accordingly to Supplementary Table 1. Signal is detected using Clarity Western ECL Substrate reagent. A GS-800 calibrated densitometer with Quantity One 1-D Analysis Software 4.6 (Bio-Rad Laboratories) is used for quantitative analysis of protein levels.
(§1) In addition, only anagen hair follicles are used.
(§2) Hair growth percentages is normalized to day 0.

[2] = test system: C57BL/6 depilated male mice; experiment: Histology (hematoxylin-eosin) of dorsal skin: number of hair follicles; type: in vivo, mouse
Experimental: (§3) FIG. 8. Galunisertib increases anagenic hair follicle growth. a) Hematoxilin-eosin staining of transversal paraffin sections of the dorsal skin of mice treated with vehicle (control), galunisertib (10 μM and 100 μM) or minoxidil at days 0, 5, 7, 14, 16 and 18 of treatment. Scale bar, 500 μm. b) Number of hair follicles per field view and c) number of hair follicles per field view in the subcutaneous layer at different timepoints along the experiment. d) Ki67 immunostaining of longitudinal paraffin sections of the dorsal skin of mice treated with vehicle (control), galunisertib (10 μM and 100 μM) or minoxidil at days 5, 7 and 14. Scale bar, 200 μm. e) Number of Ki67-positive cells in the hair bulb at days 5, 7 and 14. N≥3 animals per timepoint per condition were analyzed, and N≥4 field views were quantified per animal. Values are mean±SD. *p<0.05; **p<0.01 by Student's t-test.
For histology and immunohistochemistry, dorsal skin from the depilated region is collected from mice at different timepoints across the experiment (days 0, 5, 7, 14 and 18) and fixed in 10% buffered formalin, imbedded in paraffin and sectioned along the transversal and longitudinal plan of the hair follicles (3 μm sections). Standard protocol is used for hematoxylin and eosin staining. For immunohistochemistry, slides are deparaffinized, then antigen retrieval is performed using HistoVT One (#06380-05, Nacalai Tesque Inc.) for 40 min in a steamer, following 20 min of cooling at room temperature (RT). After washing with TBS-0.01% Tween (TBS-T), peroxidase is blocked using Bloxall (#SP-6000, Vector Laboratories Inc.) for 10 min. Slides are then washed with TBS-T, and blocked using 2.5% Normal Horse Serum (#MP7500, Impress universal kit, Vector Laboratories Inc.) for 20 min. Following this, slides are incubated with rabbit anti-Ki67 antibody (D3B5) in 0.25% Normal Horse Serum overnight at 4° C. Next day, after thoroughly washing with TBS-T, the slides are incubated with a secondary anti-mouse/anti-rabbit antibody (#MP7500, Impress universal kit, Vector Laboratories Inc.) for 45 min RT. Impact DAB (#SK-4105, Vector Laboratories Inc.) are used to develop the slides, followed by dehydration and mounting with Entellan (#1.07961.0100, Millipore) following standard procedures.

[3] = test system: Ki67 proliferation marker; experiment: Ki67 immunohistochemistry of mouse dorsal skin (hair germ); type: in vivo
Experimental: as §3
For histology and immunohistochemistry, dorsal skin from the depilated region is collected from mice at different timepoints across the experiment (days 0, 5, 7, 14 and 18) and fixed in 10% buffered formalin, imbedded in paraffin and sectioned along the transversal and longitudinal plan of the hair follicles (3 μm sections). Standard protocol is used for hematoxylin and eosin staining. […]

[4] = test system: human hair follicle organ cultures (HFOCs); experiment: Ex vivo human scalp hair follicle organ culture: catagen onset and hair shaft elongation; type: cell-based; details: 10 μM; in comparison to untreated controls; 10 days culture
Text: FIG. 2. Galunisertib delays catagen entry in HFOCs. a) Hair growth ex vivo (HFOCs) under different treatment conditions for 10 days. Representative HF photos for each condition over time are shown in the panels. DP detachment was used as readout for catagen onset. Scale bar, 1 mm. b) Catagen onset timing in HFOCs under different treatment conditions as indicated. c) Percentage of hair shaft elongation in comparison to day 0. In b) and c), values are mean±SD of HFOCs established from n=5 independent donors (n>20 HFs per condition). ns not significant, *p≤0.05, **p≤0.01 by Mann-Whitney (b,c).
as §1, §2

TGFβ2 = experiment: qRT-PCR of TGFβ transcripts in dermal papilla isolated from HFOCs; type: cell-based, human; details: Galunisertib-treated HFOCs (10 μM, 48 h)
Text: Concentration and purity are ascertained in a NanoDrop spectrophotometer.
as §1, §2

p-SMAD2 = experiment: Immunohistochemistry of cryo-sectioned HFOCs: p-SMAD2; type: cell-based, human
Text: as §2
FIG. 4. Galunisertib inhibits TGFβ2 paracrine signaling in the bulb epithelial compartment. a) Representative Immunohistochemistry (IHC) images of tissue sections of HFOCs untreated and treated with Galunisertib as indicated and stained for TGFβ2 and p-SMAD2. In the upper left frame is exemplified how the dermal papilla (DP) and adjacent bulb epithelial compartment (HB) regions were delineated for quantitative analyses shown in b-e. Nuclei were counterstained with DAPI. Scale bar, 100 μm. b-e) Adjusted intensity levels of TGFβ2 and p-SMAD2 per DP and HB areas as measured in tissue sections from untreated and Galunisertib-treated HFOCs. Values are mean±SD of HFOCs established from n=4 donors (n>9 HFs per condition). ns p≥0.05, *p≤0.05 by unpaired t-test.
For immunohistochemistry, 2-day HFOCs are used for immunohistochemistry analysis. Briefly, HFs were embedded on a drop of OCT and stored at −80° C. 8 μm cryosections are air-dried and fixed in 4% PFA (for TGFβ2, cleavage Caspase 3, p-SMAD2 and KI67 immunostainings) or cold acetone (for LEF1 and β-catenin immunostaining). Following 2×5 min rinse with PBS, microsections are permeabilized 2× for 10 min with PBS+0.3% Triton X 100 (PBS-T) and then blocked with PBS+10% fetal bovine serum (FBS) for 1 hour at room temperature. […]

SMILES: Cc1cccc(-c2nn3c(c2-c2ccnc4ccc(C(N)=O)cc24)CCC3)n1 [Galunisertib]
- canonical TGFβ signaling activation (phospho-SMAD2 protein levels) [1]: blocks TGFβ activation
- number of HFs within the subcutaneous layer (anagenic HFs) ([2]; day 5, vs vehicle): increased number of HFs
- number of anagenic HFs ([2]; day 5 to day 14): increased number of anagenic HFs
- catagen onset in mice ([2]; similar timing in all conditions): not to be delayed
- anagenic hair growth (overall) ([2]; similarly to minoxidil, but more efficiently): improves anagenic hair growth
- number of HF (per field view) ([2]; transversal HF sections, day 7 to day 14, vs control vehicle treatment): significant increase in the number of HF
- persistence of the increased number of anagenic HFs ([2]; until day 14): perdures until day 14
- Ki67-positive cells in the hair germ, comparison with minoxidil ([3]; day 7): more effective than minoxidil
- number of Ki67-positive cells in the hair germ ([3]; days 5, 7 and 14 post-treatment, vs vehicle treatment): increased number of Ki67-positive cells
- catagen entry (mean time HFOCs take to enter catagen) [4]: capable of delaying catagen entry
- hair shaft elongation [4]: impact in the hair shaft elongation
- TGFβ2 gene expression in the DP (TGFβ2): inhibit TGFβ2 gene expression
- p-SMAD2 fluorescence intensity levels at the bulb epithelial compartment (p-SMAD2; bulb epithelial compartment surrounding the DP, Galunisertib 48 h vs untreated): decreased levels
- p-SMAD2 in DP (fluorescence intensity) (p-SMAD2; dermal papilla, HFOCs with or without Galunisertib for 48 h): not significantly reduced

Source: patent US20260256771A1, “GALUNISERTIB FOR USE IN THE TREATMENT OF ANDROGENIC ALOPECIA” (SAÚDE VIÁVEL, S.A., priority 2022, published 2026)
